Reference: paper doi:10.1101/2024.08.25.609621 (bioRxiv, 2024)
Like-named read-outs stand apart in the source and are kept apart here.

Target: SARS-CoV-2 NSP3 macrodomain (Mac1), P43 crystal form (Severe acute respiratory syndrome coronavirus 2, UniProt P0DTD1)
Format: binding
Settings: for 1-BDC: PanDDA background density correction; for Pandda run, overall: Hit / Pandda run, overall: Modeled / PanDDA run, DMSO background map: 1-BDC / PanDDA run, DMSO background map: Hit / Pandda run, overall: Modeling comment / PanDDA run, TFA/DMSO background map: 1-BDC / PanDDA run, TFA/DMSO background map: Hit: crystal soak 10 mM; for Pandda run, overall: Hit / Pandda run, overall: Modeled / Pandda run, overall: Modeling comment: P43 crystals; for Total number of conformations: ligand conformations modeled in Mac1 crystal structure; for X-ray crystallography: Binding site: site where the ligand is bound in the X-ray crystal structure
[1] = X-ray crystal structure determined (TRUE)
[2] = occupancy estimate from PanDDA 1-BDC
[3] = site of ligand in X-ray crystal structure

| Compound | 1-BDC | X-ray crystal structure [1] | Pandda run, overall: Hit | Pandda run, overall: Modeled | PanDDA run, DMSO background map: 1-BDC | PanDDA run, DMSO background map: Hit | Total number of conformations | 2*(1-BDC) (%) [2] | Binding site [3] | Pandda run, overall: Modeling comment | PanDDA run, TFA/DMSO background map: 1-BDC | PanDDA run, TFA/DMSO background map: Hit | X-ray crystal structure (crystal structure with Mac1 determined (TRUE)) | Binding site (site of ligand in Mac1 crystal structure) | X-ray crystallography: Binding site | Occupancy difference (refined_occupancy - 2*(1-BDC)) | Refined ligand occupancy (%) | 2*(1-BDC) (%) (occupancy estimate from PanDDA BDC) | Refined TFA occupancy (%) (occupancy of TFA in the dataset of the named ligand) |
| --- | --- | --- | --- | --- | --- | --- | --- | --- | --- | --- | --- | --- | --- | --- | --- | --- | --- | --- | --- |
| OCC(CC1CCC1)Nc1ncnc2[nH]ccc12 (stereo not shown) [AVI-3641] | 0.18 | TRUE | TRUE | TRUE | 0.18 | TRUE | 1 | 36% | Adenosine |  |  |  |  |  |  |  |  |  |  |
| OCC(CC(O)c1ccccc1)Nc1ncnc2[nH]ccc12 (stereo not shown) [AVI-3642] | 0.17 | TRUE | TRUE | TRUE | 0.17 | TRUE | 1 | 34% | Adenosine |  |  |  |  |  |  |  |  |  |  |
| CCC(CO)Nc1ncnc2[nH]ccc12 (stereo not shown) [AVI-3643] | 0.16 | TRUE | TRUE | TRUE | 0.16 | TRUE | 1 | 32% | Adenosine |  |  |  |  |  |  |  |  |  |  |
| C#CCC(CO)Nc1ncnc2[nH]ccc12 (stereo not shown) [AVI-3644] | 0.18 | TRUE | TRUE | TRUE | 0.18 | TRUE | 1 | 36% | Adenosine |  |  |  |  |  |  |  |  |  |  |
| O=C(O)C(F)(F)F.OCC(Nc1ncnc2[nH]ccc12)C1CCCO1 (stereo not shown) [AVI-3645] |  |  | TRUE |  | 0.22 | TRUE |  |  |  | Weak density, not modeled | 0.12 | TRUE |  |  |  |  |  |  |  |
| OC1CCCN(c2ncnc3[nH]ccc23)C1 (stereo not shown) [AVI-3646] | 0.22 |  | TRUE | TRUE | 0.22 | TRUE | 1 | 44% |  |  |  |  | TRUE | Adenosine |  |  |  |  |  |
| CC(C)(C)CC(CO)Nc1ncnc2[nH]ccc12 (stereo not shown) [AVI-3648] | 0.13 | TRUE | TRUE | TRUE | 0.13 | TRUE | 1 | 26% | Adenosine |  |  |  |  |  |  |  |  |  |  |
| OCC(Nc1ncnc2[nH]ccc12)C1CCCC1 (stereo not shown) [AVI-3649] | 0.16 | TRUE | TRUE | TRUE | 0.16 | TRUE | 1 | 32% | Adenosine |  |  |  |  |  |  |  |  |  |  |
| OCC(Cc1c[nH]c2ccccc12)Nc1ncnc2[nH]ccc12 (stereo not shown) [AVI-3650] | 0.15 | TRUE | TRUE | TRUE | 0.15 | TRUE | 2 | 30% | Adenosine |  |  |  |  |  |  |  |  |  |  |
| OC(c1ccccc1)C1CCCN1c1ncnc2[nH]ccc12 (stereo not shown) [AVI-3652] | 0.22 |  | TRUE | TRUE | 0.22 | TRUE | 1 | 44% |  |  |  |  |  |  | Adenosine |  |  |  |  |
| O=C(O)C(F)(F)F.OC[C@@H](CCc1ccccc1)Nc1ncnc2[nH]ccc12 [AVI-3654] |  |  | TRUE |  | 0.14 | TRUE |  |  |  | Weak density for phenyl, not modeled | 0.07 | TRUE |  |  |  |  |  |  |  |
| CC1CCN(c2ncnc3[nH]ccc23)C1CO (stereo not shown) [AVI-3655] | 0.21 |  | TRUE | TRUE | 0.21 | TRUE | 1 | 42% |  |  |  |  |  |  | Adenosine |  |  |  |  |
| CO[C@@H]1C[C@H](CO)N(c2ncnc3[nH]ccc23)C1 [AVI-3656] | 0.26 |  | TRUE | TRUE | 0.26 | TRUE | 1 | 52% |  |  |  |  |  |  | Adenosine |  |  |  |  |
| Cn1cc(CC(CO)Nc2ncnc3[nH]ccc23)cn1 (stereo not shown) [AVI-3657] | 0.15 | TRUE | TRUE | TRUE | 0.15 | TRUE | 1 | 30% | Adenosine |  |  |  |  |  |  |  |  |  |  |
| OCC(CC1OCCO1)Nc1ncnc2[nH]ccc12 (stereo not shown) [AVI-3658] | 0.2 | TRUE | TRUE | TRUE | 0.2 | TRUE | 1 | 40% | Adenosine |  |  |  |  |  |  |  |  |  |  |
| OCC(Nc1ncnc2[nH]ccc12)c1ccco1 (stereo not shown) [AVI-3659] | 0.16 | TRUE | TRUE | TRUE | 0.16 | TRUE | 1 | 32% | Adenosine |  |  |  |  |  |  |  |  |  |  |
| OCC(CC1CCCO1)Nc1ncnc2[nH]ccc12 (stereo not shown) [AVI-3660] | 0.23 | TRUE | TRUE | TRUE | 0.23 | TRUE | 1 | 46% | Adenosine |  |  |  |  |  |  |  |  |  |  |
| OC1CCN(c2ncnc3[nH]ccc23)C1 (stereo not shown) [AVI-3661] | 0.15 |  | TRUE | TRUE | 0.15 | TRUE | 1 |  |  |  |  |  |  |  | Adenosine | 10 | 40% | 30% | 20% |
| OCC(CC1CC1)Nc1ncnc2[nH]ccc12 (stereo not shown) [AVI-3662] | 0.14 | TRUE | TRUE | TRUE | 0.14 | TRUE | 1 | 28% | Adenosine | Distal site, weak density, not modeled |  |  |  |  |  |  |  |  |  |
| OCC(CC1CCOC1)Nc1ncnc2[nH]ccc12 (stereo not shown) [AVI-3665] | 0.17 | TRUE | TRUE | TRUE | 0.17 | TRUE | 1 | 34% | Adenosine |  |  |  |  |  |  |  |  |  |  |
| CCC(Nc1ncnc2[nH]ccc12)C(C)(C)O (stereo not shown) [AVI-3667] | 0.14 | TRUE | TRUE | TRUE | 0.14 | TRUE | 1 | 28% | Adenosine |  |  |  |  |  |  |  |  |  |  |
| CC(C)CCC(CO)Nc1ncnc2[nH]ccc12.O=C(O)C(F)(F)F (stereo not shown) [AVI-3668] |  |  | TRUE |  | 0.15 | TRUE |  |  |  | Weak density, not modeled | 0.09 | TRUE |  |  |  |  |  |  |  |
| OCC(Cc1nccs1)Nc1ncnc2[nH]ccc12 (stereo not shown) [AVI-3673] | 0.19 | TRUE | TRUE | TRUE | 0.19 | TRUE | 1 | 38% | Adenosine |  |  |  |  |  |  |  |  |  |  |
| Cc1ccccc1CC(CO)Nc1ncnc2[nH]ccc12 (stereo not shown) [AVI-3674] | 0.19 | TRUE | TRUE | TRUE | 0.19 | TRUE | 1 | 38% | Adenosine |  |  |  |  |  |  |  |  |  |  |
| O=C(O)C(F)(F)F.OCC(CC1CCOCC1)Nc1ncnc2[nH]ccc12 (stereo not shown) [AVI-3676] |  |  |  |  |  |  |  |  |  | TFA only |  |  |  |  |  |  |  |  |  |
| OCC(Nc1ncnc2[nH]ccc12)C1CCOC1 (stereo not shown) [AVI-3679] | 0.16 | TRUE | TRUE | TRUE | 0.16 | TRUE | 1 | 32% | Adenosine |  |  |  |  |  |  |  |  |  |  |
